# In patent US9220264B2, “Multimeric forms of antimicrobial peptides” (Singapore Health Services Pte Ltd., priority 2008, dated 2015):
# Read-outs that look alike come from different tables or passages of the source.
# Tests used:
# Type in all cases: cell-based
# [1] = system: Methicillin-resistant staphylococcus aureus (MRSA) DM09808R Source: Eye; details: MHB 1/6 strength; 35° C.; 16 to 20 hours
# Procedure: (§1) MICs was determined by broth macrodilution method modified from that described by the National Committee for Clinical Laboratory Standards (NCCL). The Mueller Hinton Broth (MHB) at ⅙ strength and without addition of Ca^2+ and Mg^2+ was used for dilution. Serial twofold dilutions of V2 dimer solution was prepared in MHB (⅙ strength) in test tubes. 1 ml of inoculum of test organisms in MHB (⅙ strength) was added to 1 ml of each dilution of V2 dimer to yield as final concentration of 10^4 to 10^5 colony forming units/ml in each test tube. The tubes were incubated at 35° C. for 16 to 20 hours. A positive control containing only the broth and organism, and a negative control tube containing only the broth were also incubated in parallel to the test samples. The above was repeated for each different test organism in separate experiments. The MIC of V2 dimer peptide for each clinical isolate or reference organism was read as the lowest concentration of peptide that inhibited visible growth of the test organism.
# (§2) The MIC was also determined for other peptides and compared to gentamicin.
# [2] = system: Clinical Pseudomonas aeruginosa PAE 230 DR4877/07 Source: Sputum; details: MHB 1/6 strength; 35° C.; 16 to 20 hours
# Procedure: as §1, §2
# [3] = system: Clinical Pseudomonas aeruginosa PAE 239 DM5790/07 Source: Wound; details: MHB 1/6 strength; 35° C.; 16 to 20 hours
# Procedure: as §1, §2
# [4] = system: Clinical Escherichia coli DB16027 Source: Blood; details: MHB 1/6 strength; 35° C.; 16 to 20 hours
# Procedure: as §1, §2
# [5] = system: Clinical Pseudomonas aeruginosa Ps-D 07DM023104 Source: Eye; details: USP Phosphate Buffer pH 7.2, 4 hrs, 35° C.
# Procedure: (§3) The method for testing antimicrobial activity of antimicrobial peptides used an absolute killing procedure as described below. The bacterial cultures were grown on Trypticase Soy Agar (TSA) […], and the yeast culture on Sabouraud Dextrose Agar ([…] 35° C. for 16 hours. The organisms were harvested by centrifugation and washing twice in Phosphate buffer, pH 7.2 (United States Pharmacopeia, USP) at 20° C. The freeze-dried antimicrobial compound was dissolved in purified water and distributed into screw-capped plastic tubes at a concentration of 1,000 micro-grams (μg) per ml. These served as stock solutions and were kept at -20° C. On the day of conducting the test, one tube of the stock solution was defrosted and diluted in purified water to a concentration of 500 μg/ml. Thereafter, further dilutions were carried out in either USP Phosphate Buffer, pH 7.2 or other solutions (including but not limited to 10 mM sodium phosphate buffer, pH 7.4, 10 mM potassium buffer 7.2 or 155.2 mM NaCl), to the test concentrations required, normally ranging from 6.25 μg/ml to 50 μg/ml. Ten micro-liters (μl) of the test organism of standardised concentration was inoculated into one ml of the compound test solution of specific test concentration to provide a final count of between 1×10^5 cfu/ml and 1×10^6 cfu/ml as far as possible. The inoculated test solutions were than incubated at 35° C. for 4 hours. The incubation temperature and time may be varied as required. After incubation, the antimicrobial activity of the test solutions was inactivated by a 10-fold dilution in D/E Neutralising Broth (NB). Further dilutions were carried out in the NB, and plated out in TSA for bacteria, and SDA for yeast culture. The plates were incubated at 35° C. for 72 hours. The viable count of the survivor organisms was then determined. As an inoculum control, the test organism was inoculated, parallel to the Test, into the buffer used in the preparation of the test solutions instead and incubated under the same condition as the Test. The viable count of the inoculum control was determined as for the Test. […] The method described above was used for Examples 3-7 and in particular, the method for gentamicin in Example 6 is similar except that gentamicin was substituted for the antimicrobial compound.
# [6] = system: Clinical Pseudomonas aeruginosa PA2-PAE 239 DM5790/07 Source: Wound; details: USP Phosphate Buffer pH 7.2, 4 hrs, 35° C.
# Procedure: as §3
# [7] = system: Clinical Pseudomonas aeruginosa PA4-PAE 249 DM15013 Source: Wound; details: USP Phosphate Buffer pH 7.2, 4 hrs, 35° C.
# Procedure: as §3
# [8] = system: Clinical Pseudomonas aeruginosa PA1-PAE 230 DR4877/07 Source: Sputum; details: USP Phosphate Buffer pH 7.2, 4 hrs, 35° C.
# Procedure: as §3
# [9] = system: Clinical Pseudomonas aeruginosa Ps-C 07DM023155 Source: Eye; details: USP Phosphate Buffer pH 7.2, 4 hrs, 35° C.
# Procedure: as §3
# [10] = system: Clinical Pseudomonas aeruginosa PA3-PAE 240 DU14476/07 Source: Urine; details: USP Phosphate Buffer pH 7.2, 4 hrs, 35° C.
# Procedure: as §3
substance,measurement,setting,value
Gentamicin,MIC,[1],12.5 µg/mL
same,MIC,[2],400 µg/mL
same,MIC,[3],25 µg/mL
same,MIC,[4],0.78 µg/mL
same,Log Reduction,[5]; 3.125 ug/ml,>4.33
same,Log Reduction,[5]; 6.25 ug/ml,>4.33
same,Log Reduction,[5]; 12.5 ug/ml,>4.33
same,Log Reduction,[5]; 25.0 ug/ml,>4.33
same,Log Reduction,[5]; 50.0 ug/ml,>4.33
same,Log Reduction,[6]; 3.125 ug/ml,3.02
same,Log Reduction,[6]; 6.25 ug/ml,3.07
same,Log Reduction,[6]; 12.5 ug/ml,3.03
same,Log Reduction,[6]; 25.0 ug/ml,3.04
same,Log Reduction,[6]; 50.0 ug/ml,3.31
same,Log Reduction,[7]; 3.125 ug/ml,2.28
same,Log Reduction,[7]; 6.25 ug/ml,2.41
same,Log Reduction,[7]; 12.5 ug/ml,2.50
same,Log Reduction,[7]; 25.0 ug/ml,2.60
same,Log Reduction,[7]; 50.0 ug/ml,2.63
same,Log Reduction,[8]; 3.125 ug/ml,0.22
same,Log Reduction,[8]; 6.25 ug/ml,0.35
same,Log Reduction,[8]; 12.5 ug/ml,0.65
same,Log Reduction,[8]; 25.0 ug/ml,0.54
same,Log Reduction,[8]; 50.0 ug/ml,0.39
same,Log Reduction,[9]; 3.125 ug/ml,>4.61
same,Log Reduction,[9]; 6.25 ug/ml,>4.61
same,Log Reduction,[9]; 12.5 ug/ml,>4.61
same,Log Reduction,[9]; 25.0 ug/ml,>4.61
same,Log Reduction,[9]; 50.0 ug/ml,>4.61
same,Log Reduction,[10]; 3.125 ug/ml,3.66
same,Log Reduction,[10]; 6.25 ug/ml,3.76
same,Log Reduction,[10]; 12.5 ug/ml,3.88
same,Log Reduction,[10]; 25.0 ug/ml,4.18
same,Log Reduction,[10]; 50.0 ug/ml,4.57
